In ChEMBL document CHEMBL4145505, “Rational design, chemical synthesis and biological evaluation of novel biguanides exploring species-specificity responsiveness of TAAR1 agonists” (Eur J Med Chem, 2018):
pEC50: −log10 of the molar value.

How the values were obtained:
[1] = target: T1, Trace amine-associated receptor 5 (Mus musculus, UniProt Q5QD14); assay: Agonist activity at mouse TAAR5 expressed in HEK293 cells assessed as cAMP accumulation after 20 mins by BRET assay; assay type: functional, cell-based
T1 sequence (Q5QD14 whole entry): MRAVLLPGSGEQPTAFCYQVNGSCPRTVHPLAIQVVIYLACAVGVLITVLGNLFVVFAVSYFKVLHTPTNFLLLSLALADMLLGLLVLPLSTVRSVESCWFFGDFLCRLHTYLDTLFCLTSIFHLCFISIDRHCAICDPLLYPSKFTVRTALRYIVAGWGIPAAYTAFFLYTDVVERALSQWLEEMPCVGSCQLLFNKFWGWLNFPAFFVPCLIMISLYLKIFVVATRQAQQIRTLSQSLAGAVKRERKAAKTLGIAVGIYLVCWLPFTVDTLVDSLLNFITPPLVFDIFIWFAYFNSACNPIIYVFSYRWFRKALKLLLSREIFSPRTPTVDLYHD

[2] = target: T2, Trace amine-associated receptor 1 (Homo sapiens, UniProt Q96RJ0); assay: Agonist activity at human TAAR1 expressed in HEK293 cells assessed as cAMP accumulation after 20 mins by BRET assay; assay type: functional, cell-based
T2 sequence (Q96RJ0 whole entry): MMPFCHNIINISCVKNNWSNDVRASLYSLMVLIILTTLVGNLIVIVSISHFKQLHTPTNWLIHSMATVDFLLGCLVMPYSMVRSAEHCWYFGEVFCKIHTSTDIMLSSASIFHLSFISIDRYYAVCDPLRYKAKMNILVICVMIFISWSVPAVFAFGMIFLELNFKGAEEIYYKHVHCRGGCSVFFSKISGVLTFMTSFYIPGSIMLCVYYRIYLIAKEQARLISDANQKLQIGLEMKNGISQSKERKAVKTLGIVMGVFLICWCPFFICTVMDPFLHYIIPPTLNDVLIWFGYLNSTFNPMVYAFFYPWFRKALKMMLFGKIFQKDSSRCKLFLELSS

[3] = target: T3, Trace amine-associated receptor 1 (Homo sapiens) (UniProt Q96RJ0); assay: Agonist activity at human TAAR1 expressed in HEK293 cells assessed as cAMP accumulation at 10 uM after 20 mins by BRET assay relative to beta-PEA; assay type: functional, cell-based
T3 sequence (whole entry): T2 sequence (Q96RJ0 whole entry)

[4] = Selectivity ratio of EC50 for mouse TAAR1 to EC50 for human TAAR1
[5] = target: Trace amine-associated receptor 1 (Mus musculus, UniProt Q923Y8); assay: Agonist activity at mouse TAAR1 expressed in HEK293 cells assessed as cAMP accumulation after 20 mins by BRET assay; assay type: functional, cell-based
Chain of Trace amine-associated receptor 1 (Mus musculus, UniProt Q923Y8) (Q923Y8 whole entry): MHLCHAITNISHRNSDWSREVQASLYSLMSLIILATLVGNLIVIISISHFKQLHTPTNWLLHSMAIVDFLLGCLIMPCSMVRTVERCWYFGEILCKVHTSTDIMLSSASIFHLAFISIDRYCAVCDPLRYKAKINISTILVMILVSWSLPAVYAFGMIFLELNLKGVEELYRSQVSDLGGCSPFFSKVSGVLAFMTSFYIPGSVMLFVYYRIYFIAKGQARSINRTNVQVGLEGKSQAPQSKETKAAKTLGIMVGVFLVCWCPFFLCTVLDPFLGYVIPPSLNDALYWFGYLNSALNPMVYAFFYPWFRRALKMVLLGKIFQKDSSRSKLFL

[6] = target: Trace amine-associated receptor 1 (Mus musculus) (UniProt Q923Y8); assay: Agonist activity at mouse TAAR1 expressed in HEK293 cells assessed as cAMP accumulation at 10 uM after 20 mins by BRET assay relative to beta-PEA; assay type: functional, cell-based
Chain of Trace amine-associated receptor 1 (Mus musculus) (Q923Y8 whole entry): as above

SMILES	pEC50 [1]	pEC50 [5]	further results
N=C(N)/N=C(\N)N1CCN(c2cccc(C(F)(F)F)c2)CC1	< 5.00		
N=C(N)NC(=N)N1CCN(c2ccccc2)CC1	< 5.00	5.62	pEC50 [2]: 5.86; Activity [3]: 81%; Ratio EC50 [4]: 1.7; Activity [6]: 46%
N=C(N)/N=C(\N)N1CCN(c2ccc(Cl)cc2)CC1	< 5.00		
COc1ccccc1N1CCN(/C(N)=N/C(=N)N)CC1	< 5.00		
N=C(N)/N=C(\N)N1CCN(c2ccccn2)CC1	< 5.00		
COc1cccc(N2CCN(/C(N)=N/C(=N)N)CC2)c1	< 5.00		
N=C(N)/N=C(\N)N1CCN(c2cccc(Cl)c2)CC1	< 5.00		
N=C(N)/N=C(\N)N1CCN(c2ccccc2Cl)CC1	< 5.00	5.58	Activity [6]: 57%
NCCc1ccccc1 [PHENETHYLAMINE]		6.92	
COc1ccc(N2CCN(/C(N)=N/C(=N)N)CC2)cc1	< 5.00		pEC50 [2]: 4.94; Activity [3]: 110%
N=C(N)/N=C(\N)N1CCN(c2ncccn2)CC1	< 5.00	5.05	Activity [6]: 40%
